Measured values from patent US20060135461A1, “Reduction of hair growth” (priority 2004, published 2006).
Where a name gives a salt, the structure may show the parent alone. Read-outs that look alike come from different tables or passages of the source.

Assays:
[1] = system: human hair follicles; experiment: Human Hair Follicle Growth Assay; type: cell-based; settings: for Length Increase (mm): follicle length day 6 minus day 0
Excerpt: Human Hair Follicle Growth Assay
Human skin was obtained from a plastic surgeon as a by-product of face-lift procedures. The skin samples generally consisted of haired and non-haired regions taken from the area of the face. Immediately after removal, the skin was placed in Williams E medium containing antibiotics, and kept refrigerated. The Williams E medium was commercially obtained (Life Technologies, Gaithersburg, Md.), and has been formulated with essential nutrients for maintaining viability of hair follicle in an in-vitro environment.
Human hair follicles in growth phase (anagen) were isolated from face-lift tissue under a dissecting scope using a scalpel and watchmakers forceps. The skin was sliced into thin strips exposing 2-3 rows of follicles that could readily be dissected. Follicles were placed into 0.5 ml Williams E medium supplemented with 2 mM L-glutamine, 10 ug/ml insulin, 10 ng/ml hydrocortisone, 100 units penicillin, 0.1 mg/ml streptomycin and 0.25 μg/ml amphotericin B. The follicles were incubated in 24 well plates (1 follicle/well) at 37° C. in an atmosphere of 5% CO2 and 95% air. Hair follicle images were taken in the 24-well plates under the dissecting scope under a power of 20×. Hair follicle lengths were measured on day 0 (day follicles were placed in culture) and again on day 6-7. In this system follicles appear to fully differentiate into a hair fiber and increase in length at a rate similar to the human, in vivo, rate of about 0.3 mm/day. For testing survivin inhibitors, the inhibitor was included in the culture medium from time 0 and remained in the medium throughout the course of the experiment.

[2] = system: survivin; experiment: Determination of Hair Follicle Survivin Protein Content by ELISA; type: cell-based, human; settings: for Survivin Protein: human hair follicles in vitro, normalized to total protein; for Inhibition: survivin protein level
Protocol: Determination of Hair Follicle Survivin Protein Content by ELISA (Enzyme-Linked Immunosorbent Assay)
For protein extraction, 5-micron cryosections of the hair follicles were collected into the centrifuge tubes, followed by short time incubation with the lysis buffer (BD Bioscience; CA; Cat #K 1848-1). The solutions were centrifuged for 30 minutes at 14,000×g at 4° C., and the supernatants were frozen and stored at −80° C. For quantification of survivin protein, a commercially available ELISA kit was used, following the manufacturer's instructions (Assay Design Inc; Michigan; Cat # 900-111). Total protein concentration in the extracts was determined by using the bicinchoninic acid (BCA) protein assay (Pierce Chemical Company, Rockford; Cat #23225). The readings of optical density were performed, using EL340 Bio Kinetics microplate reader (Bio-Tek Instruments Inc). The survivin levels (in pg/ml) were normalized against the total amount of protein (in ug/ml) extracted from hair follicles.

[3] = system: flank organ hair growth; experiment: Golden Syrian Hamster Assay; type: in vivo; settings: for % Inhibition: hair mass vs vehicle side; for Treated Side: hair mass
Excerpt: Golden Syrian Hamster Assay
Male intact Golden Syrian hamsters are considered acceptable models for human beard hair growth in that they display oval shaped flank organs, one on each side, each about 8 mm. in major diameter. These organs produce fine light colored hair typical of the animal pelage found on the body. In response to androgens the flank organs produce dark coarse hair similar to male human beard hair. To evaluate the effectiveness of a composition, the flank organs of each of a group of hamsters are depilated by applying a thioglycolate-based chemical depilatory (Surgex) and/or shaved. To one organ of each animal 10 μl of vehicle alone once a day is applied, while to the other organ of each animal an equal amount of vehicle containing a survivin inhibitor. After thirteen applications (one application per day for five days a week), the flank organs are shaved and the amount of recovered hair (hair mass) from each is weighed. For certain experiments, where indicated, the treatment period was for less than 13 applications. The reduced treatment period allowed for determination of onset in activity. Percent-reduction of hair growth is calculated by subtracting the hair mass (mg) value of the test compound treated side from the hair mass value of the vehicle treated side; the delta value obtained is then divided by the hair mass value of the vehicle treated side, and the resultant number is multiplied by 100. Visual evaluations comparing hair regrowth between the drug treated and the vehicle control site were made generally on day-8, day-15 and on day-19. These observations provide an identification of onset in activity (and thus efficacy).

[4] = 10% topical, vehicle 10% DMSO in ethanol, water, emerest, and propylene glycol
[5] = 5% topical, vehicle 20% propylene glycol in ethanol

`CC[C@H](CO)Nc1nc(NCc2ccccc2)c2ncn(C(C)C)c2n1` [Roscovitine, (R)-2-[[9-(1-methylethyl)-6-[(phenylmethyl)amino]-9H-purin-2-yl]amino]-1-butanol] was tested, and the “Length Increase in mm” value ([1]; 10 uM Roscovitine in culture medium) was 0.97 ± 0.13 mm, the “Length Increase in mm” value ([1]; 15 uM Roscovitine in culture medium) was 0.5 ± 0.1 mm and the “Length Increase in mm” value ([1]; 20 uM Roscovitine in culture medium) was 0.05 ± 0.05 mm. For the same compound, the inhibition at 10 µM ([1]; Homo sapiens, 10 uM Roscovitine vs control) was 42%, the inhibition at 15 µM ([1]; Homo sapiens, 15 uM Roscovitine vs control) was 60% and the inhibition at 20 µM ([1]; Homo sapiens, 20 uM Roscovitine vs control, read-out: Hair Growth Inhibition) was 80%. The “Survivin Protein” value ([2]; 15 uM Roscovitine) was 0.03 pg/mg, the “Survivin Protein” value ([2]; 20 uM Roscovitine) was 0.007 pg/mg and the Inhibition ([2]; 15 uM Roscovitine vs control) was 62%. The Inhibition ([2]; 20 uM Roscovitine vs control) was 95%.

`COc1cc([C@H]2Oc3cc([C@H]4Oc5cc(O)cc(O)c5C(=O)[C@@H]4O)ccc3O[C@@H]2CO)ccc1O` [Silibinin, (2R,3R)-2-[(2R,3R)-2,3-dihydro-3-(4-hydroxy-3-methoxyphenyl)-2-(hydroxymethyl)-1,4-benzodioxin-6-yl]-2,3-dihydro-3,5,7-trihydroxy-4H-1-benzopyran-4-one] was tested, and the “% Inhibition” value [3, 4] was 62.1 + 5.5% and the “Treated Side” value [3, 4] was 0.77 ± .14 mg.

With `CC(Cc1ccc(OC(=O)CN(C)C)c(OC(=O)CN(C)C)c1)C(C)Cc1ccc(OC(=O)CN(C)C)c(OC(=O)CN(C)C)c1` [G4N, meso-1,4-bis[(3,4-dimethylaminoacetoxy)phenyl]-(2R,3S)-dimethylbutane hydrochloride salt] the “Length Increase (mm)” value ([1]; G4N 20 uM in culture medium) was 1.19 ± 0.11 mm, the “Length Increase (mm)” value ([1]; G4N 50 uM in culture medium) was 0.61 ± 0.14 mm and the inhibition at 20 µM ([1]; Homo sapiens, 144 h, 20 uM, hair growth vs control, day 6, read-out: % Inhibition) was 30%. The inhibition at 50 µM ([1]; Homo sapiens, 144 h, 50 uM, hair growth vs control, day 6) was 64%, the “% Inhibition” value [3, 5] was 48 ± 6% and the “Treated Side” value [3, 5] was 1.17 ± 0.2 mg.
